Where “and” joins values, the source holds several entries; their conditions need not be identical. Equal entries are not always repeated. Structures can show the parent of a compound that is named as a salt. Where two headings read alike, the source gives them in different places.
What was measured:
[1] = system: icilin-induced “wet-dog” shakes (WDS); assay: Inhibition of Icilin-Induced “Wet-Dog” Shakes in Rats; format: in vivo, Sprague Dawley rats; settings: po; for inhibition in vivo at 10 mg/kg / inhibition in vivo at 3 mg/kg: read-out: Icilin % Inhibition @1.5 hrs
Protocol: The test compound was administered in 10% hydroxypropyl-β-cyclodextrin (HP-13-CD), p.o., 60 min before icilin.
% Inhibition=[1−(test compound WDS count/vehicle WDS count)]×100.

canine TRPM8 = target: T1, canine TRPM8 (Canis lupus familiaris, UniProt Q1A7N1); assay: In Vitro Canine TRPM8 Functional Assay (intracellular Ca2+ fluorescence, icilin activation, HEK293 cells); format: cell-based; settings: for IC50: HEK293 cells expressing canine TRPM8, icilin activation, individually measured values (batches/salt forms), read-out: IC50 (nM), in vitro TRP M8 Activity; for % Inh (%) @0.2 μM, in vitro TRP M8 Activity: 0.2 μM test compound; for % Inh (%) @0.2 μM, in vitro TRP M8 Activity / inhibition at 0.2 µM: individually measured values
T1 construct: expressed in transfected cells
T1 sequence (Q1A7N1 1-1104): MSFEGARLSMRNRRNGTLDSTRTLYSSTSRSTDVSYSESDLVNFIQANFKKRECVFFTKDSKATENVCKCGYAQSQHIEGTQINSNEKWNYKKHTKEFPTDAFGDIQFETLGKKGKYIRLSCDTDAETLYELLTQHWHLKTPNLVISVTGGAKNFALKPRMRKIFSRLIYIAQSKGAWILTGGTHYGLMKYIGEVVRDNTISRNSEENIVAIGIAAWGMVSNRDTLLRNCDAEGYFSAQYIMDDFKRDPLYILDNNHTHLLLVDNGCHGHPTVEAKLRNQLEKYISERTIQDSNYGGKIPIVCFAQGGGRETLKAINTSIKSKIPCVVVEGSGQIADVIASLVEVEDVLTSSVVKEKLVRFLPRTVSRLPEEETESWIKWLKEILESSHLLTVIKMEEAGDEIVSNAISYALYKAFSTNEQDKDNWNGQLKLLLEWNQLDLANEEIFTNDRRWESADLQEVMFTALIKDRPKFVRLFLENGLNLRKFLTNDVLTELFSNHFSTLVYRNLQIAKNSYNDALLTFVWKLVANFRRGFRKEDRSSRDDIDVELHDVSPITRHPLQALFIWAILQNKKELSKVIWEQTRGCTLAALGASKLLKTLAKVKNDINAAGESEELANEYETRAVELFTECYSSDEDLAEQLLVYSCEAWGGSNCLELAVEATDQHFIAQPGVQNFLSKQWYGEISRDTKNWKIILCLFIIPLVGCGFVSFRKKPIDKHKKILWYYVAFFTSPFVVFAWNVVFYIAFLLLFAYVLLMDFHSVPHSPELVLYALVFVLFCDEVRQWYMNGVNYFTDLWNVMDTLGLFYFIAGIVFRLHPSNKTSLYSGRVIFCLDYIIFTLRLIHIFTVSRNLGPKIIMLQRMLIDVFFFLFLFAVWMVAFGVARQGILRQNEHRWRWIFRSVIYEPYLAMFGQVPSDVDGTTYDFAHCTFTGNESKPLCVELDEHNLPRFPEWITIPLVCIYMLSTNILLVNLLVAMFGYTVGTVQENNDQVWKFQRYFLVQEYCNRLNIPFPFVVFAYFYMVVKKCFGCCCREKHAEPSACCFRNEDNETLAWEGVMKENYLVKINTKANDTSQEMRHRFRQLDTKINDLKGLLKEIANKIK
Method in brief: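 HEK293 cells expressing canine TRPM8 loaded with Calcium 3 dye, then stimulated with icilin; intracellular Ca2+ rise read on FLIPR or FDSS. Peak fluorescence minus basal normalized to percent maximal response; IC50 from sigmoidal nonlinear regression of quadruplicate wells.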

[2] = rat, p.o., dose 10 mg/kg, 1.5 hrs
[3] = rat, p.o., dose 3 mg/kg, 1.5 hrs
[4] = HEK293, 0.2 μM test compound, read-out: % Inh (%) @0.2 μM, in vitro TRP M8 Activity
[5] = HEK293, read-out: % Inh (%) @0.2 μM, in vitro TRP M8 Activity, 0.2 μM test compound

Compound	IC50 (canine TRPM8)	inhibition at 0.2 µM (canine TRPM8; [4])	inhibition in vivo at 3 mg/kg [1, 3]	further results
CCn1nc(C(C)(C)C)cc1-c1nc2cc(-c3ccccc3C(F)(F)F)ccc2[nH]1 [Compound 44, 2-(5-tert-Butyl-2-ethyl-2H-pyrazol-3-yl)-5-(2-trifluoromethylphenyl)-1H-benzimidazole sodium salt]	15.8 nM			inhibition in vivo at 10 mg/kg ([1]; Rattus norvegicus, 1.5 h): 30%
Cn1nc(C(C)(C)C)cc1-c1nc2cc(-c3c(F)cccc3F)ccc2[nH]1 [Compound 58, 2-(5-tert-Butyl-2-methyl-2H-pyrazol-3-yl)-5-(2,6-difluoro-phenyl)-1H-benzimidazole trifluoroacetic acid salt]	14 nM and 17.3 nM			inhibition in vivo at 5.6 mg/kg ([1]; rat, 1.5 hrs): 11.2%
Cn1nc(C(C)(C)C)cc1-c1nc2cc(-c3c(F)cccc3C(F)(F)F)ccc2[nH]1 [Compound 61, 2-(5-tert-Butyl-2-methyl-2H-pyrazol-3-yl)-5-(2-fluoro-6-trifluoromethylphenyl)-1H-benzimidazole sodium salt]	7.8 nM and 10 nM			inhibition in vivo at 10 mg/kg ([1]; Rattus norvegicus, 1.5 h): 38.8%
Cc1c(C(C)(C)C)nn(C)c1-c1nc2cc(-c3ccccc3C(F)(F)F)ccc2[nH]1 [Compound 76, 2-(5-tert-Butyl-2,4-dimethyl-2H-pyrazol-3-yl)-5-(2-trifluoromethylphenyl)-1H-benzimidazole sodium salt]	6 nM			inhibition in vivo at 10 mg/kg ([1]; Rattus norvegicus, 1.5 h): 98.6%
Cc1c(C(C)(C)C)nn(C)c1-c1nc2cc(-c3c(F)cccc3C(F)(F)F)ccc2[nH]1 [Compound 78, 2-(5-tert-Butyl-2,4-dimethyl-2H-pyrazol-3-yl)-5-(2-fluoro-6-trifluoromethyl-phenyl)-1H-benzimidazole sodium salt]	1 nM			inhibition in vivo at 10 mg/kg ([1]; Rattus norvegicus, 1.5 h): 99.3%
Cl.Cn1nc(C(C)(C)C)c(Cl)c1-c1nc2cc(-c3c(F)cccc3F)cc(Cl)c2[nH]1 [Compound 112, 2-(5-tert-Butyl-4-chloro-2-methyl-2H-pyrazol-3-yl)-7-chloro-5-(2,6-difluoro-phenyl)-1H-benzimidazole hydrochloride]	5.6 nM and 3.5 nM and 5.9 nM	99%	21.2%	% Inh (%) @0.2 μM, in vitro TRP M8 Activity (canine TRPM8): 99, 99%
Cn1nc(C(C)(C)C)c(Cl)c1-c1nc2cc(-c3c(F)cccc3C(F)(F)F)cc(Cl)c2[nH]1.[Na] [Compound 113, 2-(5-tert-Butyl-4-chloro-2-methyl-2H-pyrazol-3-yl)-7-chloro-5-(2-fluoro-6-trifluoromethyl-phenyl)-1H-benzimidazole sodium salt]	2.4 nM and 3.5 nM and 4.4 nM			inhibition in vivo at 3 mg/kg ([1]; Rattus norvegicus, 1.5 h): 2.8%; % Inh (%) @0.2 μM, in vitro TRP M8 Activity (canine TRPM8; sodium salt, 0.2 µM): 100%; inhibition at 0.2 µM (canine TRPM8; [5]): 99%
Cn1nc(C(C)(C)C)c(Cl)c1-c1nc2cc(-c3ccccc3Cl)cc(Cl)c2[nH]1.[Na] [Compound 115, 2-(5-tert-Butyl-4-chloro-2-methyl-2H-pyrazol-3-yl)-7-chloro-5-(2-chloro-phenyl)-1H-benzimidazole sodium salt]	2.2 nM and 5.6 nM and 4.9 nM	100%	45%	% Inh (%) @0.2 μM, in vitro TRP M8 Activity (canine TRPM8): 100, 100%
Cl.Cn1nc(C(C)(C)C)c(Cl)c1-c1nc2cc(-c3ccccc3OC(F)(F)F)cc(Cl)c2[nH]1 [Compound 117, 2-(5-tert-Butyl-4-chloro-2-methyl-2H-pyrazol-3-yl)-7-chloro-5-(2-trifluoromethoxy-phenyl)-1H-benzimidazole hydrochloride]	7 nM and 11.3 nM and 8.4 nM	100%	7.7%	% Inh (%) @0.2 μM, in vitro TRP M8 Activity (canine TRPM8): 100, 100%
Cn1nc(C(C)(C)C)c(Cl)c1-c1nc2cc(-c3c(F)cccc3C(F)(F)F)cc(C(F)(F)F)c2[nH]1 [Compound 125, 2-(5-tert-Butyl-4-chloro-2-methyl-2H-pyrazol-3-yl)-5-(2-fluoro-6-trifluoromethyl-phenyl)-7-trifluoromethyl-1H-benzimidazole sodium salt]	3.2 nM and 1.7 nM			inhibition in vivo at 3 mg/kg ([1]; Rattus norvegicus, 1.5 h): 24.6%; inhibition at 0.2 µM (canine TRPM8; [5]): 100%
Cn1nc(C(C)(C)C)c(Cl)c1-c1nc2cc(-c3c(F)cccc3OC(F)(F)F)cc(Cl)c2[nH]1 [Compound 130, 2-(5-tert-Butyl-4-chloro-2-methyl-2H-pyrazol-3-yl)-7-chloro-5-(2-fluoro-6-trifluoromethoxy-phenyl)-1H-benzimidazole hydrochloride]	10.7 nM and 5.3 nM	100%	22.7%	
Cc1c(C(C)(C)C)nn(C)c1-c1nc2cc(-c3ccccc3F)cc(Cl)c2[nH]1 [Compound 133, 2-(5-tert-Butyl-2,4-dimethyl-2H-pyrazol-3-yl)-7-chloro-5-(2-fluoro-phenyl)-1H-benzimidazole hydrochloride]	12.6 nM and 10.2 nM	99%	4.6%	
Cc1c(C(C)(C)C)nn(C)c1-c1nc2cc(-c3c(F)cccc3F)cc(Cl)c2[nH]1 [Compound 136, 2-(5-tert-Butyl-2,4-dimethyl-2H-pyrazol-3-yl)-7-chloro-5-(2,6-difluoro-phenyl)-1H-benzimidazole hydrochloride]	8.2 nM and 9 nM	100%	61.6%	
Cn1nc(C(C)(C)C)c(C#N)c1-c1nc2cc(-c3ccccc3OC(F)(F)F)cc(Cl)c2[nH]1 [Compound 170, 3-tert-Butyl-5-[7-chloro-5-(2-trifluoromethoxy-phenyl)-1H-benzimidazol-2-yl]-1-methyl-1H-pyrazole-4-carbonitrile sodium salt]	12.4 nM	100%	4.3%	
Cc1oc(-c2nc3cc(-c4ccccc4Cl)cc(C(F)(F)F)c3[nH]2)nc1C(C)(C)C [Compound 196, 2-(4-tert-Butyl-5-methyl-oxazol-2-yl)-5-(2-chloro-phenyl)-7-trifluoromethyl-1H-benzimidazole hydrochloride]		39%		

The next lines start with results.

IC50 (canine TRPM8)	inhibition at 0.2 µM (canine TRPM8; [4])	Compound	inhibition in vivo at 3 mg/kg [1, 3]	further results
22 nM and 24 nM (2×) and 29 nM		CC(C)c1cc(-c2nc3cc(-c4ccccc4C(F)(F)F)ccc3[nH]2)on1 [Compound 3, 2-(3-Isopropylisoxazol-5-yl)-5-(2-trifluoromethylphenyl)-1H-benzimidazole sodium salt]		inhibition in vivo at 30 mg/kg ([1]; rat, dose 30 mg/kg, 1.5 hrs): 48.3%
17.4 nM and 12 nM		CC(C)(C)c1cc(-c2nc3cc(-c4ccccc4C(F)(F)F)ccc3[nH]2)on1 [Compound 9, 2-(3-tert-Butylisoxazol-5-yl)-5-(2-trifluoromethylphenyl)-1H-benzimidazole sodium salt]		inhibition in vivo at 10 mg/kg [1, 2]: 66.4%
14 nM and 8.2 nM and 2.2 nM		Cn1nc(C(C)(C)C)c(Cl)c1-c1nc2cc(-c3ccccc3C(F)(F)F)ccc2[nH]1 [Compound 50, 2-(5-tert-Butyl-4-chloro-2-methyl-2H-pyrazol-3-yl)-5-(2-trifluoromethylphenyl)-1H-benzimidazole sodium salt]		inhibition in vivo at 10 mg/kg [1, 2]: 47.4%
5 nM and 14.4 nM		Cc1cc(-c2ccccc2C(F)(F)F)cc2nc(-c3cc(C(C)(C)C)nn3C)[nH]c12 [Compound 79, 2-(5-tert-Butyl-2-methyl-2H-pyrazol-3-yl)-7-methyl-5-(2-trifluoromethylphenyl)-1H-benzimidazole hydrochloride]		inhibition in vivo at 5.6 mg/kg ([1]; rat, 1.5 hrs): 20.1%
3.1 nM and 7.7 nM		Cn1nc(C(C)(C)C)c(Cl)c1-c1nc2cc(-c3c(F)cccc3C(F)(F)F)ccc2[nH]1 [Compound 86, 2-(5-tert-Butyl-4-chloro-2-methyl-2H-pyrazol-3-yl)-5-(2-fluoro-6-trifluoromethyl-phenyl)-1H-benzimidazole hydrochloride]		inhibition in vivo at 10 mg/kg [1, 2]: 98.7%
3.6 nM and 5.2 nM and 2.4 nM		Cn1nc(C(C)(C)C)c(Cl)c1-c1nc2cc(-c3ccccc3Cl)ccc2[nH]1 [Compound 89, 2-(5-tert-Butyl-4-chloro-2-methyl-2H-pyrazol-3-yl)-5-(2-chloro-phenyl)-1H-benzimidazole hydrochloride]		inhibition in vivo at 10 mg/kg [1, 2]: 91.5%
2.6 nM and 5.8 nM and 5.5 nM	99%	Cl.Cn1nc(C(C)(C)C)c(Cl)c1-c1nc2cc(-c3ccccc3C(F)(F)F)cc(Cl)c2[nH]1 [Compound 116, 2-(5-tert-Butyl-4-chloro-2-methyl-2H-pyrazol-3-yl)-7-chloro-5-(2-trifluoromethyl-phenyl)-1H-benzimidazole hydrochloride]	47.7%	% Inh (%) @0.2 μM, in vitro TRP M8 Activity (canine TRPM8; hydrochloride, 0.2 µM): 100%
2.1 nM		Cc1c(C(C)(C)C)nn(C)c1-c1nc2cc(-c3ccccc3C(F)(F)F)cc(C(F)(F)F)c2[nH]1 [Compound 120, 2-(5-tert-Butyl-2,4-dimethyl-2H-pyrazol-3-yl)-7-trifluoromethyl-5-(2-trifluoromethyl-phenyl)-1H-benzimidazole hydrochloride]	44.8%	
8 nM	100%	Cn1nc(C(C)(C)C)c(C#N)c1-c1nc2cc(-c3ccccc3C(F)(F)F)cc(Cl)c2[nH]1 [Compound 169, 3-tert-Butyl-5-[7-chloro-5-(2-trifluoromethyl-phenyl)-1H-benzimidazol-2-yl]-1-methyl-1H-pyrazole-4-carbonitrile sodium salt]	34%	
